Key:
Assay in all cases: cells
[1] = tested on: JEG-3; type: functional, cell-based, Homo sapiens; conditions: Homo sapiens, JEG-3;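 further: growth inhibition of human JEG-3 cells, read out with a cell viability assay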
Description: SANGER: Inhibition of human JEG-3 cell growth in a cell viability assay.

[2] = tested on: SNB-75; type: functional, cell-based, Homo sapiens; conditions: Homo sapiens, SNB-75;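 further: cell viability assay measuring growth inhibition of human SNB-75 cells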
Description: SANGER: Inhibition of human SNB75 cell growth in a cell viability assay.

[3] = tested on: NUGC-3; type: functional, cell-based, Homo sapiens; conditions: Homo sapiens, NUGC-3;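 further: growth inhibition of human NUGC-3 cells, read out with a cell viability assay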
Description: SANGER: Inhibition of human NUGC-3 cell growth in a cell viability assay.

[4] = tested on: OVCAR-3; type: functional, cell-based, Homo sapiens; conditions: Homo sapiens, OVCAR-3;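 further: growth inhibition of human OVCAR-3 cells, determined by a cell viability assay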
Description: SANGER: Inhibition of human OVCAR-3 cell growth in a cell viability assay.

[5] = tested on: DMS-114; type: functional, cell-based, Homo sapiens; conditions: Homo sapiens, DMS-114
[6] = tested on: MHH-PREB-1; type: functional, cell-based; conditions: Homo sapiens;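 further: cell viability assay measuring inhibition of proliferation of human MHH-PREB-1 cells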
Description: SANGER: Inhibition of human MHH-PREB-1 cell growth in a cell viability assay.

[7] = tested on: KM12; type: functional, cell-based, Homo sapiens; conditions: Homo sapiens, KM12;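 further: KM12 cell growth inhibition, read out with a cell viability assay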
Description: SANGER: Inhibition of human KM12 cell growth in a cell viability assay.

[8] = tested on: SCH; type: functional, cell-based, Homo sapiens; conditions: Homo sapiens, SCH;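 further: growth inhibition of human SCH cells, read out in a cell viability assay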
Description: SANGER: Inhibition of human SCH cell growth in a cell viability assay.

[9] = tested on: M14; type: functional, cell-based, Homo sapiens; conditions: Homo sapiens, M14;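 further: growth inhibition of M14 cells, read out with a cell viability assay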
Description: SANGER: Inhibition of human M14 cell growth in a cell viability assay.

[10] = tested on: MZ2-MEL; type: functional, cell-based, Homo sapiens; conditions: Homo sapiens, MZ2-MEL;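 further: growth inhibition of MZ2-MEL cells read out with a cell viability assay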
Description: SANGER: Inhibition of human MZ2-MEL cell growth in a cell viability assay.

[11] = tested on: KU812 cell line; type: functional, cell-based; conditions: Homo sapiens;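 further: growth inhibition of KU812 cells, read out with a cell viability assay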
Description: SANGER: Inhibition of human KU812 cell growth in a cell viability assay.

[12] = tested on: BV-173; type: functional, cell-based; conditions: Homo sapiens
Description: SANGER: Inhibition of human BV-173 cell growth in a cell viability assay.

[13] = tested on: ES7; type: functional, cell-based, Homo sapiens; conditions: Homo sapiens, ES7;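 further: growth inhibition of cultured human ES7 cells, read out as cell viability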
Description: SANGER: Inhibition of human ES7 cell growth in a cell viability assay.

[14] = tested on: LB996-RCC; type: functional, cell-based; conditions: Homo sapiens
Description: SANGER: Inhibition of human LB996-RCC cell growth in a cell viability assay.

[15] = tested on: LOX IMVI; type: functional, cell-based; conditions: Homo sapiens
Description: SANGER: Inhibition of human LOXIMVI cell growth in a cell viability assay.

[16] = tested on: NCI-H661; type: functional, cell-based, Homo sapiens; conditions: Homo sapiens, NCI-H661;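 further: cell viability assay read-out, IC50 being the concentration that inhibits growth of the cells by half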
Description: SANGER: Inhibition of human NCI-H661 cell growth in a cell viability assay.

[17] = tested on: CHL-1; type: functional, cell-based, Homo sapiens; conditions: Homo sapiens, CHL-1;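 further: cell growth inhibition, read out with a cell viability assay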
Description: SANGER: Inhibition of human CHL-1 cell growth in a cell viability assay.

[18] = tested on: NCI-H82; type: functional, cell-based; conditions: Homo sapiens;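 further: growth inhibition of NCI-H82 cells, measured with a cell viability readout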
Description: SANGER: Inhibition of human NCI-H82 cell growth in a cell viability assay.

[19] = tested on: C32; type: functional, cell-based, Homo sapiens; conditions: Homo sapiens, C32;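 further: cell viability assay, with IC50 reflecting inhibition of C32 cell growth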
Description: SANGER: Inhibition of human C32 cell growth in a cell viability assay.

[20] = tested on: CHP-212; type: functional, cell-based, Homo sapiens; conditions: Homo sapiens, CHP-212
Description: SANGER: Inhibition of human CHP-212 cell growth in a cell viability assay.

[21] = tested on: SW1990; type: functional, cell-based, Homo sapiens; conditions: Homo sapiens, SW1990;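 further: cell growth inhibition determined with a viability assay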
Description: SANGER: Inhibition of human SW1990 cell growth in a cell viability assay.

[22] = tested on: MFE-280; type: functional, cell-based, Homo sapiens; conditions: Homo sapiens, MFE-280;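 further: growth inhibition of MFE-280 cells, determined with a cell viability readout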
Description: SANGER: Inhibition of human MFE-280 cell growth in a cell viability assay.

[23] = tested on: Lu-65; type: functional, cell-based; conditions: Homo sapiens;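 further: growth inhibition of Lu-65 cancer cells, read out by a cell viability assay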
Description: SANGER: Inhibition of human LU-65 cell growth in a cell viability assay.

[24] = tested on: SW1573; type: functional, cell-based, Homo sapiens; conditions: Homo sapiens, SW1573;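 further: growth inhibition of SW1573 cells, read out with a cell viability assay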
Description: SANGER: Inhibition of human SW1573 cell growth in a cell viability assay.

[25] = tested on: LB2241-RCC; type: functional, cell-based, Homo sapiens; conditions: Homo sapiens, LB2241-RCC;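 further: cell viability assay measuring how strongly the cultured human renal carcinoma line is prevented from growing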
Description: SANGER: Inhibition of human LB2241-RCC cell growth in a cell viability assay.

[26] = tested on: KYSE-150 cell line; type: functional, cell-based, Homo sapiens; conditions: Homo sapiens, KYSE-150;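 further: growth inhibition of human KYSE-150 cells, read out with a cell viability assay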
Description: SANGER: Inhibition of human KYSE-150 cell growth in a cell viability assay.

[27] = tested on: RCC10RGB; type: functional, cell-based, Homo sapiens; conditions: Homo sapiens, RCC10RGB;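 further: growth inhibition of human RCC10RGB cells, read out by a cell viability assay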
Description: SANGER: Inhibition of human RCC10RGB cell growth in a cell viability assay.

[28] = tested on: NCI-H1623; type: functional, cell-based, Homo sapiens; conditions: Homo sapiens, NCI-H1623;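 further: cell viability assay used as the read-out for growth inhibition of NCI-H1623 cells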
Description: SANGER: Inhibition of human NCI-H1623 cell growth in a cell viability assay.

[29] = tested on: no-10; type: functional, cell-based, Homo sapiens; conditions: Homo sapiens;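 further: growth inhibition of no-10 cells, read out with a cell viability assay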
Description: SANGER: Inhibition of human no-10 cell growth in a cell viability assay.

[30] = tested on: SW13; type: functional, cell-based, Homo sapiens; conditions: Homo sapiens, SW13;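 further: IC50 is inhibition of SW13 cell growth, read out with a cell viability assay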
Description: SANGER: Inhibition of human SW13 cell growth in a cell viability assay.

[31] = tested on: BFTC-909; type: functional, cell-based, Homo sapiens; conditions: Homo sapiens, BFTC-909
Description: SANGER: Inhibition of human BFTC-909 cell growth in a cell viability assay.

[32] = tested on: VMRC-RCZ; type: functional, cell-based; conditions: Homo sapiens;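 further: growth inhibition measured with a cell viability assay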
Description: SANGER: Inhibition of human VMRC-RCZ cell growth in a cell viability assay.

[33] = tested on: KALS-1; type: functional, cell-based, Homo sapiens; conditions: Homo sapiens, KALS-1;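 further: growth inhibition of KALS-1 cells, determined with a cell viability assay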
[34] = tested on: MDA-MB-157; type: functional, cell-based, Homo sapiens; conditions: Homo sapiens, MDA-MB-157
Description: SANGER: Inhibition of human MDA-MB-157 cell growth in a cell viability assay.

[35] = tested on: L-428; type: functional, cell-based; conditions: Homo sapiens
Description: SANGER: Inhibition of human L-428 cell growth in a cell viability assay.

[36] = tested on: TGW; type: functional, cell-based; conditions: Homo sapiens;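 further: growth inhibition of human TGW cells, read out with a cell viability assay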
Description: SANGER: Inhibition of human TGW cell growth in a cell viability assay.

[37] = tested on: HuCCT-1; type: functional, cell-based, Homo sapiens, HuCCT1; conditions: Homo sapiens, HuCCT-1;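 further: growth inhibition of HuCCT-1 cells, read out by a cell viability assay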
Description: SANGER: Inhibition of human HuCCT1 cell growth in a cell viability assay.

[38] = tested on: TCC-SUP; type: functional, cell-based, Homo sapiens; conditions: Homo sapiens, TCC-SUP;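 further: growth inhibition of TCC-SUP cells, read out with a cell viability assay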
Description: SANGER: Inhibition of human TCCSUP cell growth in a cell viability assay.

[39] = tested on: SK-MEL-2; type: functional, cell-based, Homo sapiens; conditions: Homo sapiens, SK-MEL-2;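 further: growth inhibition of human SK-MEL-2 cells measured with a cell viability assay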
Description: SANGER: Inhibition of human SK-MEL-2 cell growth in a cell viability assay.

[40] = tested on: SBC-5; type: functional, cell-based, Homo sapiens; conditions: Homo sapiens, SBC-5;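 further: cell viability assay read-out, IC50 is the concentration that inhibits growth of the cells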
Description: SANGER: Inhibition of human SBC-5 cell growth in a cell viability assay.

[41] = tested on: ES4; type: functional, cell-based, Homo sapiens; conditions: Homo sapiens, ES4;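 further: growth inhibition of human ES4 cells, read out by a cell viability assay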
Description: SANGER: Inhibition of human ES4 cell growth in a cell viability assay.

[42] = tested on: NCI-H226; type: functional, cell-based, Homo sapiens; conditions: Homo sapiens, NCI-H226;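 further: cell viability read-out used to gauge growth inhibition of the cells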
Description: SANGER: Inhibition of human NCI-H226 cell growth in a cell viability assay.

[43] = tested on: DSH1; type: functional, cell-based, Homo sapiens; conditions: Homo sapiens, DSH1;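 further: growth inhibition of human DSH1 cells, measured with a cell viability readout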
Description: SANGER: Inhibition of human DSH1 cell growth in a cell viability assay.

[44] = tested on: CAL-54; type: functional, cell-based, Homo sapiens; conditions: Homo sapiens, CAL-54;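 further: growth inhibition of CAL-54 cells, read out by a viability measurement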
Description: SANGER: Inhibition of human CAL-54 cell growth in a cell viability assay.

[45] = tested on: SNU1; type: functional, cell-based; conditions: Homo sapiens;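 further: growth inhibition of human NCI-SNU-1 cells, measured with a cell viability assay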
Description: SANGER: Inhibition of human NCI-SNU-1 cell growth in a cell viability assay.

[46] = tested on: SJSA-1; type: functional, cell-based, Homo sapiens; conditions: Homo sapiens, SJSA-1;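 further: growth inhibition of human SJSA-1 cells, read out through a cell viability measurement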
Description: SANGER: Inhibition of human SJSA-1 cell growth in a cell viability assay.

[47] = tested on: HN; type: functional, cell-based, Homo sapiens; conditions: Homo sapiens, HN
Description: SANGER: Inhibition of human HN cell growth in a cell viability assay.

[48] = tested on: no-11; type: functional, cell-based, Homo sapiens; conditions: Homo sapiens;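 further: growth inhibition of human NO-11 cells, read out with a cell viability assay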
Description: SANGER: Inhibition of human no-11 cell growth in a cell viability assay.

[49] = tested on: HT-1080; type: functional, cell-based, Homo sapiens; conditions: Homo sapiens, HT-1080
Description: SANGER: Inhibition of human HT-1080 cell growth in a cell viability assay.

[50] = tested on: HCT-116; type: functional, cell-based, Homo sapiens; conditions: Homo sapiens, HCT-116
Description: SANGER: Inhibition of human HCT-116 cell growth in a cell viability assay.

[51] = tested on: NCI-H1993; type: functional, cell-based, Homo sapiens; conditions: Homo sapiens, NCI-H1993;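 further: growth inhibition of the cancer cell line, assessed with a cell viability assay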
Description: SANGER: Inhibition of human NCI-H1993 cell growth in a cell viability assay.

[52] = tested on: VM-CUB-1; type: functional, cell-based; conditions: Homo sapiens;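 further: cell viability assay measuring growth inhibition of the human VM-CUB-1 cell line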
Description: SANGER: Inhibition of human VM-CUB-1 cell growth in a cell viability assay.

`Cc1ccc(Nc2nccc(N(C)c3ccc4c(C)n(C)nc4c3)n2)cc1S(N)(=O)=O` [PAZOPANIB] was tested, and the IC50 [1] was over 8000 nM, the IC50 [2] was 6570 nM and the IC50 [3] was over 8000 nM. The IC50 [4] was over 8000 nM, the IC50 [5] was over 8000 nM and the IC50 [6] was over 8000 nM. The IC50 [7] was over 8000 nM, the IC50 [8] was over 8000 nM and the IC50 [9] was over 8000 nM. It also gave an IC50 [10] of 6930 nM, an IC50 [11] of 5380 nM and an IC50 [12] of over 8000 nM. The IC50 [13] was over 8000 nM, the IC50 [14] was over 8000 nM and the IC50 [15] was over 8000 nM. It also gave an IC50 [16] of over 8000 nM, an IC50 [17] of over 8000 nM and an IC50 [18] of over 8000 nM. It also gave an IC50 [19] of over 8000 nM, an IC50 [20] of over 8000 nM and an IC50 [21] of over 8000 nM. For the same molecule, the IC50 [22] was over 8000 nM, the IC50 [23] was over 8000 nM and the IC50 [24] was over 8000 nM. For the same molecule, the IC50 [25] was over 8000 nM, the IC50 [26] was over 8000 nM and the IC50 [27] was over 8000 nM. For the same molecule, the IC50 [28] was over 8000 nM, the IC50 [29] was over 8000 nM and the IC50 [30] was over 8000 nM. The IC50 [31] was over 8000 nM, the IC50 [32] was over 8000 nM and the IC50 [33] was over 8000 nM. For the same molecule, the IC50 [34] was over 8000 nM, the IC50 [35] was over 8000 nM and the IC50 [36] was over 8000 nM. The IC50 [37] was over 8000 nM, the IC50 [38] was over 8000 nM and the IC50 [39] was over 8000 nM. The IC50 [40] was over 8000 nM, the IC50 [41] was over 8000 nM and the IC50 [42] was over 8000 nM. The IC50 [43] was over 8000 nM, the IC50 [44] was 3280 nM and the IC50 [45] was over 8000 nM. It also gave an IC50 [46] of over 8000 nM, an IC50 [47] of over 8000 nM and an IC50 [48] of over 8000 nM. The IC50 [49] was over 8000 nM, the IC50 [50] was over 8000 nM and the IC50 [51] was over 8000 nM. For the same molecule, the IC50 [52] was over 8000 nM.
`CN(c1ncccc1CNc1nc(Nc2ccc3c(c2)CC(=O)N3)ncc1C(F)(F)F)S(C)(=O)=O` [PF-00562271] was tested, and the IC50 [1] was over 2560 nM, the IC50 [2] was over 2560 nM and the IC50 [3] was over 2560 nM. It also gave an IC50 [4] of over 2560 nM, an IC50 [5] of over 2560 nM and an IC50 [6] of over 2560 nM. For the same molecule, the IC50 [7] was 386 nM, the IC50 [8] was over 2560 nM and the IC50 [9] was over 2560 nM. For the same molecule, the IC50 [10] was over 2560 nM, the IC50 [11] was over 2560 nM and the IC50 [12] was over 2560 nM. For the same molecule, the IC50 [13] was over 2560 nM, the IC50 [14] was over 2560 nM and the IC50 [15] was over 2560 nM. It also gave an IC50 [16] of over 2560 nM, an IC50 [17] of over 2560 nM and an IC50 [18] of over 2560 nM. For the same molecule, the IC50 [19] was over 2560 nM, the IC50 [20] was 2100 nM and the IC50 [21] was over 2560 nM. For the same molecule, the IC50 [22] was over 2560 nM, the IC50 [23] was over 2560 nM and the IC50 [24] was over 2560 nM. For the same molecule, the IC50 [25] was over 2560 nM, the IC50 [26] was 1350 nM and the IC50 [27] was 2330 nM. For the same molecule, the IC50 [28] was over 2560 nM, the IC50 [29] was over 2560 nM and the IC50 [30] was over 2560 nM. The IC50 [31] was over 2560 nM, the IC50 [32] was over 2560 nM and the IC50 [33] was over 2560 nM. For the same molecule, the IC50 [34] was over 2560 nM, the IC50 [35] was over 2560 nM and the IC50 [36] was over 2560 nM. It also gave an IC50 [37] of over 2560 nM, an IC50 [38] of over 2560 nM and an IC50 [39] of over 2560 nM. The IC50 [40] was over 2560 nM, the IC50 [41] was over 2560 nM and the IC50 [42] was over 2560 nM. The IC50 [43] was over 2560 nM, the IC50 [44] was over 2560 nM and the IC50 [45] was over 2560 nM. The IC50 [46] was over 2560 nM, the IC50 [47] was over 2560 nM and the IC50 [48] was over 2560 nM. For the same molecule, the IC50 [49] was over 2560 nM, the IC50 [50] was over 2560 nM and the IC50 [51] was over 2560 nM. For the same molecule, the IC50 [52] was over 2560 nM.

Reference: ChEMBL document CHEMBL1201861, “Genomics of Drug Sensitity in Cancer screening data, Wellcome Trust Sanger Institute”
